≈ marks a conversion by molar mass, not a printed value.
test system: Bacillus cereus; assay: Antibacterial activity against Bacillus cereus MTCC 8372 at 50 ug/ml after 24 hrs by disc diffusion method; type: functional; details: MTCC 8372, 24 h, read-out: IZ

| Structure (SMILES) | zone of inhibition at 50 µg/mL [mm] |
| --- | --- |
| CCOC(=O)c1c(-c2ccccc2)nn(-c2ccccc2)c1COc1cc(OC)c(C=O)c(OC)c1 | 6 |
| CCOC(=O)c1c(-c2ccccc2)nn(-c2ccccc2)c1Cn1cnc2ccccc21 | 6 |

test system: Bacillus cereus; assay: Antibacterial activity against Bacillus cereus MTCC 8372 at 100 ug/ml after 24 hrs by disc diffusion method; type: functional; details: MTCC 8372, 24 h, read-out: IZ

| Structure (SMILES) | zone of inhibition at 100 µg/mL [mm] |
| --- | --- |
| CCOC(=O)c1c(-c2ccccc2)nn(-c2ccccc2)c1COc1cc(OC)c(C=O)c(OC)c1 | 10 |
| CCOC(=O)c1c(-c2ccccc2)nn(-c2ccccc2)c1Cn1cnc2ccccc21 | 12 |

test system: Staphylococcus aureus; assay: Antibacterial activity against Staphylococcus aureus MTCC 96 at 50 ug/ml after 24 hrs by disc diffusion method; type: functional; details: MTCC 96, 24 h, read-out: IZ

| Structure (SMILES) | zone of inhibition at 50 µg/mL [mm] |
| --- | --- |
| CCOC(=O)c1c(-c2ccccc2)nn(-c2ccccc2)c1COc1cc(OC)c(C=O)c(OC)c1 | 8 |
| CCOC(=O)c1c(-c2ccccc2)nn(-c2ccccc2)c1Cn1cnc2ccccc21 | 6 |

test system: Staphylococcus aureus; assay: Antibacterial activity against Staphylococcus aureus MTCC 96 at 100 ug/ml after 24 hrs by disc diffusion method; type: functional; details: MTCC 96, 24 h, read-out: IZ

| Structure (SMILES) | zone of inhibition at 100 µg/mL [mm] |
| --- | --- |
| CCOC(=O)c1c(-c2ccccc2)nn(-c2ccccc2)c1COc1cc(OC)c(C=O)c(OC)c1 | 10 |
| CCOC(=O)c1c(-c2ccccc2)nn(-c2ccccc2)c1Cn1cnc2ccccc21 | 12 |

test system: Escherichia coli; assay: Antibacterial activity against Escherichia coli MTCC 724 at 50 ug/ml after 24 hrs by disc diffusion method; type: functional; details: MTCC 724, 24 h, read-out: IZ

| Structure (SMILES) | zone of inhibition at 50 µg/mL [mm] |
| --- | --- |
| CCOC(=O)c1c(-c2ccccc2)nn(-c2ccccc2)c1COc1cc(OC)c(C=O)c(OC)c1 | 15 |
| CCOC(=O)c1c(-c2ccccc2)nn(-c2ccccc2)c1Cn1cnc2ccccc21 | 8 |

test system: Escherichia coli; assay: Antibacterial activity against Escherichia coli MTCC 724 at 100 ug/ml after 24 hrs by disc diffusion method; type: functional; details: MTCC 724, 24 h, read-out: IZ

| Structure (SMILES) | zone of inhibition at 100 µg/mL [mm] |
| --- | --- |
| CCOC(=O)c1c(-c2ccccc2)nn(-c2ccccc2)c1COc1cc(OC)c(C=O)c(OC)c1 | 30 |
| CCOC(=O)c1c(-c2ccccc2)nn(-c2ccccc2)c1Cn1cnc2ccccc21 | 10 |

test system: Klebsiella pneumoniae; assay: Antibacterial activity against Klebsiella pneumoniae MTCC 3384 at 50 ug/ml after 24 hrs by disc diffusion method; type: functional; details: MTCC 3384, 24 h, read-out: IZ

| Structure (SMILES) | zone of inhibition at 50 µg/mL [mm] |
| --- | --- |
| CCOC(=O)c1c(-c2ccccc2)nn(-c2ccccc2)c1COc1cc(OC)c(C=O)c(OC)c1 | 10 |
| CCOC(=O)c1c(-c2ccccc2)nn(-c2ccccc2)c1Cn1cnc2ccccc21 | 6 |

test system: Klebsiella pneumoniae; assay: Antibacterial activity against Klebsiella pneumoniae MTCC 3384 at 100 ug/ml after 24 hrs by disc diffusion method; type: functional; details: MTCC 3384, 24 h, read-out: IZ

| Structure (SMILES) | zone of inhibition at 100 µg/mL [mm] |
| --- | --- |
| CCOC(=O)c1c(-c2ccccc2)nn(-c2ccccc2)c1COc1cc(OC)c(C=O)c(OC)c1 | 19 |
| CCOC(=O)c1c(-c2ccccc2)nn(-c2ccccc2)c1Cn1cnc2ccccc21 | 10 |

test system: Aspergillus flavus; assay: Antifungal activity against Aspergillus flavus MTCC 873 at 50 ug/ml after 24 hrs by disc diffusion method; type: functional; details: MTCC 873, 24 h, read-out: IZ

| Structure (SMILES) | zone of inhibition at 50 µg/mL [mm] |
| --- | --- |
| CCOC(=O)c1c(-c2ccccc2)nn(-c2ccccc2)c1COc1cc(OC)c(C=O)c(OC)c1 | 10 |
| CCOC(=O)c1c(-c2ccccc2)nn(-c2ccccc2)c1Cn1cnc2ccccc21 | 12 |

test system: Aspergillus flavus; assay: Antifungal activity against Aspergillus flavus MTCC 873 at 100 ug/ml after 24 hrs by disc diffusion method; type: functional; details: MTCC 873, 24 h, read-out: IZ

| Structure (SMILES) | zone of inhibition at 100 µg/mL [mm] |
| --- | --- |
| CCOC(=O)c1c(-c2ccccc2)nn(-c2ccccc2)c1COc1cc(OC)c(C=O)c(OC)c1 | 12 |
| CCOC(=O)c1c(-c2ccccc2)nn(-c2ccccc2)c1Cn1cnc2ccccc21 | 15 |

test system: Aspergillus niger; assay: Antifungal activity against Aspergillus niger MTCC 281 at 50 ug/ml after 24 hrs by disc diffusion method; type: functional; details: MTCC 281, 24 h, read-out: IZ

| Structure (SMILES) | zone of inhibition at 50 µg/mL [mm] |
| --- | --- |
| CCOC(=O)c1c(-c2ccccc2)nn(-c2ccccc2)c1COc1cc(OC)c(C=O)c(OC)c1 | 14 |
| CCOC(=O)c1c(-c2ccccc2)nn(-c2ccccc2)c1Cn1cnc2ccccc21 | 25 |

test system: Bacillus cereus; assay: Antibacterial activity against Bacillus cereus MTCC 8372 after 24 hrs by microdilution method; type: functional; details: MTCC 8372, 24 h

| MIC [µg/mL] | Structure (SMILES) |
| --- | --- |
| 40 (≈ 82.2 µM) | CCOC(=O)c1c(-c2ccccc2)nn(-c2ccccc2)c1COc1cc(OC)c(C=O)c(OC)c1 |
| 60 (≈ 142 µM) | CCOC(=O)c1c(-c2ccccc2)nn(-c2ccccc2)c1Cn1cnc2ccccc21 |

test system: Bacillus cereus; assay: Antibacterial activity against Bacillus cereus MTCC 8372 assessed as concentration required to completely destroy test microorganisms after 24 hrs; type: functional; details: MTCC 8372, 24 h

| Structure (SMILES) | MBC [µg/mL] |
| --- | --- |
| CCOC(=O)c1c(-c2ccccc2)nn(-c2ccccc2)c1COc1cc(OC)c(C=O)c(OC)c1 | 200 (≈ 411 µM) |
| CCOC(=O)c1c(-c2ccccc2)nn(-c2ccccc2)c1Cn1cnc2ccccc21 | 285 (≈ 675 µM) |

test system: Staphylococcus aureus; assay: Antibacterial activity against Staphylococcus aureus MTCC 96 after 24 hrs by microdilution method; type: functional; details: MTCC 96, 24 h

| MIC [µg/mL] | Structure (SMILES) |
| --- | --- |
| 40 (≈ 82.2 µM) | CCOC(=O)c1c(-c2ccccc2)nn(-c2ccccc2)c1COc1cc(OC)c(C=O)c(OC)c1 |
| 55 (≈ 130 µM) | CCOC(=O)c1c(-c2ccccc2)nn(-c2ccccc2)c1Cn1cnc2ccccc21 |

test system: Staphylococcus aureus; assay: Antibacterial activity against Staphylococcus aureus MTCC 96 assessed as concentration required to completely destroy test microorganisms after 24 hrs; type: functional; details: MTCC 96, 24 h

| Structure (SMILES) | MBC [µg/mL] |
| --- | --- |
| CCOC(=O)c1c(-c2ccccc2)nn(-c2ccccc2)c1COc1cc(OC)c(C=O)c(OC)c1 | 200 (≈ 411 µM) |
| CCOC(=O)c1c(-c2ccccc2)nn(-c2ccccc2)c1Cn1cnc2ccccc21 | 290 (≈ 686 µM) |

test system: Escherichia coli; assay: Antibacterial activity against Escherichia coli MTCC 724 after 24 hrs by microdilution method; type: functional; details: MTCC 724, 24 h

| MIC [µg/mL] | Structure (SMILES) |
| --- | --- |
| 25 (≈ 51.4 µM) | CCOC(=O)c1c(-c2ccccc2)nn(-c2ccccc2)c1COc1cc(OC)c(C=O)c(OC)c1 |
| 55 (≈ 130 µM) | CCOC(=O)c1c(-c2ccccc2)nn(-c2ccccc2)c1Cn1cnc2ccccc21 |

test system: Escherichia coli; assay: Antibacterial activity against Escherichia coli MTCC 724 assessed as concentration required to completely destroy test microorganisms after 24 hrs; type: functional; details: MTCC 724, 24 h

| Structure (SMILES) | MBC [µg/mL] |
| --- | --- |
| CCOC(=O)c1c(-c2ccccc2)nn(-c2ccccc2)c1COc1cc(OC)c(C=O)c(OC)c1 | 160 (≈ 329 µM) |
| CCOC(=O)c1c(-c2ccccc2)nn(-c2ccccc2)c1Cn1cnc2ccccc21 | 270 (≈ 639 µM) |

test system: Klebsiella pneumoniae; assay: Antibacterial activity against Klebsiella pneumoniae MTCC 3384 after 24 hrs by microdilution method; type: functional; details: MTCC 3384, 24 h

| MIC [µg/mL] | Structure (SMILES) |
| --- | --- |
| 20 (≈ 41.1 µM) | CCOC(=O)c1c(-c2ccccc2)nn(-c2ccccc2)c1COc1cc(OC)c(C=O)c(OC)c1 |
| 40 (≈ 94.7 µM) | CCOC(=O)c1c(-c2ccccc2)nn(-c2ccccc2)c1Cn1cnc2ccccc21 |

test system: Klebsiella pneumoniae; assay: Antibacterial activity against Klebsiella pneumoniae MTCC 3384 assessed as concentration required to completely destroy test microorganisms after 24 hrs; type: functional; details: MTCC 3384, 24 h

| Structure (SMILES) | MBC [µg/mL] |
| --- | --- |
| CCOC(=O)c1c(-c2ccccc2)nn(-c2ccccc2)c1COc1cc(OC)c(C=O)c(OC)c1 | 150 (≈ 308 µM) |
| CCOC(=O)c1c(-c2ccccc2)nn(-c2ccccc2)c1Cn1cnc2ccccc21 | 220 (≈ 521 µM) |

test system: Aspergillus flavus; assay: Antifungal activity against Aspergillus flavus MTCC 873 after 48 hrs by microdilution method; type: functional; details: MTCC 873, 48 h

| MIC [µg/mL] | Structure (SMILES) |
| --- | --- |
| 50 (≈ 103 µM) | CCOC(=O)c1c(-c2ccccc2)nn(-c2ccccc2)c1COc1cc(OC)c(C=O)c(OC)c1 |
| 45 (≈ 107 µM) | CCOC(=O)c1c(-c2ccccc2)nn(-c2ccccc2)c1Cn1cnc2ccccc21 |

test system: Aspergillus flavus; assay: Antifungal activity against Aspergillus flavus MTCC 873 assessed as concentration required to completely destroy test microorganisms after 24 hrs; type: functional; details: MTCC 873, 24 h

| Structure (SMILES) | MFC [µg/mL] |
| --- | --- |
| CCOC(=O)c1c(-c2ccccc2)nn(-c2ccccc2)c1COc1cc(OC)c(C=O)c(OC)c1 | 215 (≈ 442 µM) |
| CCOC(=O)c1c(-c2ccccc2)nn(-c2ccccc2)c1Cn1cnc2ccccc21 | 275 (≈ 651 µM) |

test system: Aspergillus niger; assay: Antifungal activity against Aspergillus niger MTCC 281 after 48 hrs by microdilution method; type: functional; details: MTCC 281, 48 h

| MIC [µg/mL] | Structure (SMILES) |
| --- | --- |
| 45 (≈ 92.5 µM) | CCOC(=O)c1c(-c2ccccc2)nn(-c2ccccc2)c1COc1cc(OC)c(C=O)c(OC)c1 |
| 50 (≈ 118 µM) | CCOC(=O)c1c(-c2ccccc2)nn(-c2ccccc2)c1Cn1cnc2ccccc21 |

test system: Aspergillus niger; assay: Antifungal activity against Aspergillus niger MTCC 281 assessed as concentration required to completely destroy test microorganisms after 24 hrs; type: functional; details: MTCC 281, 24 h

| Structure (SMILES) | MFC [µg/mL] |
| --- | --- |
| CCOC(=O)c1c(-c2ccccc2)nn(-c2ccccc2)c1COc1cc(OC)c(C=O)c(OC)c1 | 190 (≈ 391 µM) |
| CCOC(=O)c1c(-c2ccccc2)nn(-c2ccccc2)c1Cn1cnc2ccccc21 | 280 (≈ 663 µM) |

test system: Aspergillus niger; assay: Antifungal activity against Aspergillus niger MTCC 281 at 100 ug/ml after 24 hrs by disc diffusion method; type: functional; details: MTCC 281, 24 h, read-out: IZ

| Structure (SMILES) | zone of inhibition at 100 µg/mL [mm] |
| --- | --- |
| CCOC(=O)c1c(-c2ccccc2)nn(-c2ccccc2)c1COc1cc(OC)c(C=O)c(OC)c1 | 11 |
| CCOC(=O)c1c(-c2ccccc2)nn(-c2ccccc2)c1Cn1cnc2ccccc21 | 20 |

target: T1, Alpha amylase (Homo sapiens, UniProt P0DUB6); assay: Inhibition of alpha-amylase (unknown origin) using starch as substrate after 30 mins by spectrophotometer analysis; details: not given
T1 sequence (P0DUB6 whole entry): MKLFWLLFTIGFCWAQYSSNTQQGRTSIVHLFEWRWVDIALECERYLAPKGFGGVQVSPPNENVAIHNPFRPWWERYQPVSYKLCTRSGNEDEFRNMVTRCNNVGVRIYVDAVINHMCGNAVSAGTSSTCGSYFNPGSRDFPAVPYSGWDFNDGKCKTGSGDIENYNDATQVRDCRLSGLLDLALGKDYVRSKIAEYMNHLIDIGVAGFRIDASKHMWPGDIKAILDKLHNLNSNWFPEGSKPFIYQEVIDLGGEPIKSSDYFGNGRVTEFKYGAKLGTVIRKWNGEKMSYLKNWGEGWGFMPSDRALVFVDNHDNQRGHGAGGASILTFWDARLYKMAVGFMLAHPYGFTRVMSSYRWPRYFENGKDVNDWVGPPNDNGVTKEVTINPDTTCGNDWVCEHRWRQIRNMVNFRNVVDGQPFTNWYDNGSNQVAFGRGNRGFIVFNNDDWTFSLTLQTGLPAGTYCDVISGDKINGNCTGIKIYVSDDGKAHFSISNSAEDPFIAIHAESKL

| IC50 [µg/mL] | Structure (SMILES) |
| --- | --- |
| 40 (≈ 82.2 µM) | CCOC(=O)c1c(-c2ccccc2)nn(-c2ccccc2)c1COc1cc(OC)c(C=O)c(OC)c1 |
| 35 (≈ 82.8 µM) | CCOC(=O)c1c(-c2ccccc2)nn(-c2ccccc2)c1Cn1cnc2ccccc21 |

target: not listed separately; assay: Inhibition of alpha-glucosidase (unknown origin) using p-nitrophenol glycoside as substrate after 30 mins by colorimetric analysis; parameters: species or system Homo sapiens; details: not given

| IC50 [µg/mL] | Structure (SMILES) |
| --- | --- |
| 35 (≈ 71.9 µM) | CCOC(=O)c1c(-c2ccccc2)nn(-c2ccccc2)c1COc1cc(OC)c(C=O)c(OC)c1 |
| 30 (≈ 71 µM) | CCOC(=O)c1c(-c2ccccc2)nn(-c2ccccc2)c1Cn1cnc2ccccc21 |
